Experimental findings from patent publication US7897602B2, “Indolinone compounds as kinase inhibitors” (Development Center for Biotechnology, priority 2009, dated 2011) are described below.

Series [1] has as its system COLO 205 tumor cells. As to the kind of experiment: In vivo anti-cancer activity, COLO 205 subcutaneous tumor model. Conditions: COLO 205 s.c. tumors in NOD/SCID mice; i.v. 5, 10 or 20 mg/kg qd × 14. The method, then:
(§1) COLO 205 (1×10^6 cell/mouse) tumor cells were subcutaneously injected into the right flank of 5 week old male NOD/SCID mice (BioLASCO, Taiwan). Tumor volume was measured with a digital caliper once tumor was palpable (within 10 to 15 days after implantation). Compound treatment was started after 1-3 weeks when the tumors had reached an average volume of ˜50 to 100 mm^3. Mice were divided into 5 groups as listed in Table 4 below and were given intravenous injections with test compound at different dosage (5 mg/kg, 10 mg/kg, or 20 mg/kg), SU11248 (20 mg/kg, positive control), or vehicle control (DMSO:Cremophor:PBS (pH 7.4)=[…]) one time every day. The test compound, DCB-70055, was formulated in a solution of 5% DMSO, 10% Cremophor, and 85% PBS. The positive control, SU11248, was dissolved in 100% PBS. Body weights of the mice were measured every two to three days and the tumor sizes in different groups of mice were measured by digital caliper every two to three days.

In series [2] the target is T1, Aurora A kinase (Homo sapiens, UniProt O14965).
T1 construct: purchased Upstate
T1 sequence (O14965 1-403): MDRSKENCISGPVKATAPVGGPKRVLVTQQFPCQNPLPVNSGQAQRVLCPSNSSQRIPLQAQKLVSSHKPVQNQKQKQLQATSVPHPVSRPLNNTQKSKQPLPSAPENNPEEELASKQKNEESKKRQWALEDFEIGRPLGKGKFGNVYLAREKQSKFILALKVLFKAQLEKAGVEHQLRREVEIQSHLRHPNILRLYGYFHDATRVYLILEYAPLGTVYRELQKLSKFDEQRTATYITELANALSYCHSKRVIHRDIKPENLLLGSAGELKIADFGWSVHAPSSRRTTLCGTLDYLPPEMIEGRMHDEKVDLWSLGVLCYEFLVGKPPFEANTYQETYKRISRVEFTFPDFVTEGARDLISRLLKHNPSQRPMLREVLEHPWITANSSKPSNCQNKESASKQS
As to the kind of experiment: Aurora A kinase assay ([γ-33P]ATP, CHOCKtide substrate). The series is classed as biochemical. Conditions: for inhibition at 1 µM: 1.0 μM test compound. An outline of the steps: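 Radiometric filter-binding format: 33P incorporation into CHOCKtide counted after acid stop and filtration. Reactions ran 30 min at 33 °C, Aurora A with 10 μM ATP, Aurora B with 40 μM ATP. IC50 taken as concentration giving half-maximal kinase inhibition.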

Series [3] in a line: Body weight of mice in the COLO 205 tumor study. The series is classed as in vivo. Conditions: NOD/SCID mice with COLO 205 tumors; i.v. 5, 10 or 20 mg/kg qd × 14. The method, then:
as §1

The target of series [4] is T2, Flt3 kinase (Homo sapiens, UniProt P36888).
T2 construct: recombinant N-terminal 6×His-tagged Flt3 kinase domain construct expressed from baculovirus; 6xHis (N); made in house
T2 sequence (P36888 610-943 limits assumed): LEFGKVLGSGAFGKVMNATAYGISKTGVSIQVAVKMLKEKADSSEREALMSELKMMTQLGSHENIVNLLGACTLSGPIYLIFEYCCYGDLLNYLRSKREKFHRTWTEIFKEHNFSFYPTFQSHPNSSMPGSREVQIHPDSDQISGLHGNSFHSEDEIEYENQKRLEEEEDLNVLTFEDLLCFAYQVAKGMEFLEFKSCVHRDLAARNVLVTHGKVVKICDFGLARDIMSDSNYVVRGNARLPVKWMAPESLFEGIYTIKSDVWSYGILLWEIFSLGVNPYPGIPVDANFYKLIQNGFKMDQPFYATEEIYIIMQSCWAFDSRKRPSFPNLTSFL
Kind of series: Flt3 kinase assay (33P incorporation into Poly(Glu-Tyr)). Conditions: 100 nM test compound; read-out: Inhibition at 100 nM (%) Flt-3. The series is classed as biochemical. An outline of the steps: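 Baculovirus-expressed His-tagged Flt3 kinase domain (5 ng) with Poly(Glu-Tyr) 4:1 substrate, 100 μM ATP plus [33P]-γ-ATP, in MOPS pH 7.0 buffer, 30 min at 30 °C. Compound tested at a single 100 nM concentration; filter-bound radioactivity counted and percent inhibition calculated relative to DMSO control.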

SMILES strings stand for the structures.

In the case of `O=C(O)CCc1c(/C=C2\C(=O)Nc3ccc(F)cc32)[nH]c2c1C(=O)CCC2` [DCB-70055, (Z)-5-fluoro-3-((3-carboxyethyl-4-oxo-4,5,6,7-tetrahydro-1H-indol-2-yl)methylene)indolin-2-one], the “tumor growth in vivo” value in series [1] is reported as “inhibited tumor growth in vivo”. Besides, in series [2], inhibition was half-maximal at 178 nM (IC50) and 1 µM produced 79.8% inhibition. In addition, in series [3], the “weight loss (body weight)” value is “without inducing significant weight loss”. For the same molecule, the inhibition (as a rule, how much of the control response was suppressed) at 0.1 µM in series [4] was 86.5%.
With `O=C(O)CCc1c(/C=C2\C(=O)Nc3ccc(NS(=O)(=O)c4ccc(F)cc4)cc32)[nH]c2c1C(=O)CCC2` [DCB-70145, (Z)-3-(2-((5-(4-fluorophenylsulfonamido)-2-oxoindolin-3-ylidene)methyl)-4-oxo-4,5,6,7-tetrahydro-1H-indol-3-yl)propanoic acid], in series [2], it took 45.7 nM to reach half-maximal inhibition (IC50) and 1 µM produced 90.3% inhibition. For the same molecule, the inhibition at 0.1 µM in series [4] stood at 24%.
As to `CCOC(=O)CCc1c(/C=C2\C(=O)Nc3ccc(NS(=O)(=O)c4ccccc4)cc32)[nH]c2c1C(=O)CCCC2` [DCB-70146, (Z)-ethyl 3-(4-oxo-2-((2-oxo-5-(phenylsulfonamido)indolin-3-ylidene)methyl)-1,4,5,6,7,8-hexahydrocyclohepta[b]pyrrol-3-yl)propanoate], in series [2], the IC50 – broadly, the concentration needed to halve the response being measured – was 86.3 nM and 1 µM produced 81.3% inhibition. Besides, the inhibition at 0.1 µM in series [4] is 59.9%.
In series [2], `O=C(O)CCc1c(/C=C2\C(=O)Nc3ccc(NS(=O)(=O)c4ccccc4)cc32)[nH]c2c1C(=O)CCCC2` [DCB-70147, (Z)-3-(4-oxo-2-((2-oxo-5-(phenylsulfonamido)indolin-3-ylidene)methyl)-1,4,5,6,7,8-hexahydrocyclohepta[b]pyrrol-3-yl)propanoic acid] showed a half-inhibitory concentration (IC50) of 68.4 nM and an inhibition at 1 µM of 91.9%. Further, the inhibition at 0.1 µM in series [4] was found to be 43.8%.
